Key:
Na+/H+ exchanger (NHE) = test: NHE activity: Na+-dependent pHi recovery after NH4Cl acid pulse in BCECF-loaded SKNMC-H3 cells; assay type: cell-based, human
[1] = tested on: guinea-pig heart synaptosomes; assay type: cell-based
SH-SY5Y-H3 cells [2] = assay type: cell-based, human
SH-SY5Y cells [3] = assay type: cell-based, human
SH-SY5Y-H3 cells [4] = test: Cai measurements (Fura-2) in K+-depolarized H3R-transfected SH-SY5Y-H3 cells; assay type: cell-based, human
H3R = H3R (Homo sapiens, UniProt Q9Y5N1); settings: read-out: EC50 to activate the H3R; cited from earlier work
H3R, sequence (Q9Y5N1 whole entry, species assumed): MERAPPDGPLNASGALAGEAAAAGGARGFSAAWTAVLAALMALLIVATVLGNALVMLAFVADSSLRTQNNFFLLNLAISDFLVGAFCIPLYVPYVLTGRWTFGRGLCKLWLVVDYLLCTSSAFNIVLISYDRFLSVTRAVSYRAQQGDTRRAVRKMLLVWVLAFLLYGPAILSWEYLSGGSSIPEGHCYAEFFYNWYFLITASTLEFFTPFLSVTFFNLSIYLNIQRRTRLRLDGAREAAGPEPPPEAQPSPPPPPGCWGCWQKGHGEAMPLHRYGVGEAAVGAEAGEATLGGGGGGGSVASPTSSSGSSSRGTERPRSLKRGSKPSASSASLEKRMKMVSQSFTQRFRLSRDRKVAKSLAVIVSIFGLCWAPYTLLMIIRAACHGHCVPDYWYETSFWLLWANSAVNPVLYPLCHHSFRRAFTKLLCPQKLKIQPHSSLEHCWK

SH-SY5Y cells [5] = assay type: cell-based, human; remark: listed apart in the source
[6] = thioperamide 300 nM plus imetit 100 nM

N=C(N)SCCc1cnc[nH]1 [imetit, Imetit]
inhibition of NHE activity (Na+/H+ exchanger (NHE); imetit 100 nM): 35% | rate of intracellular alkalinization, representative single cell (Na+/H+ exchanger (NHE); imetit 100 nM, cell of FIG. 1B, control cell 0.094): 0.050 pHi units/min | final pHi after re-introduction of Na+ (Na+/H+ exchanger (NHE); imetit 100 nM, n=277 cells): 6.61±0.01 | initial pHi (Na+/H+ exchanger (NHE); imetit-treated cells, n=277): 6.74±0.01 | pHi right before Na+ was reintroduced (0 Na pHi) (Na+/H+ exchanger (NHE); imetit-treated cells, n=277): 6.26±0.01 | cells with rates lower than the mean control rate of 0.074 pHi units/min (Na+/H+ exchanger (NHE); imetit-treated, 277 cells): 77% | concentration-response curve for K+-induced exocytosis of endogenous NE [1]: significantly shifted downwards | concentration-response curve for K+-induced exocytosis of [3H]NE (SH-SY5Y-H3 cells [2]): significantly shifted downwards | K+-elicited Cai transients (SH-SY5Y cells [3]): fails to affect Cai transients | effect on peak Cai concentration elicited by 100 mM K+ (SH-SY5Y cells [3]): failed to affect peak Cai concentration | K+-elicited Ca2+ transients (SH-SY5Y-H3 cells [4]): markedly depressed | decrease in peak Cai concentration elicited by 100 mM K+ (SH-SY5Y-H3 cells [4]): 55% | EC50 (H3R): 2 nM

CCN(c1nc(N)c(C(=O)N=C(N)N)nc1Cl)C(C)C [EIPA, 5-(N-ethyl-N-isopropyl)amiloride]
inhibition of NHE activity (Na+/H+ exchanger (NHE); EIPA 10 uM): 50% | mean rate of Na+-dependent intracellular alkalinization (NHE activity) (Na+/H+ exchanger (NHE); EIPA 10 uM, control 0.074): 0.031 pHi units/min

S=C(NC1CCCCC1)N1CCC(c2c[nH]cn2)CC1 [thioperamide, Thioperamide]
effect on NHE activity (Na+/H+ exchanger (NHE); thioperamide 300 nM alone): did not significantly modify NHE activity | effect on imetit-induced NHE attenuation (Na+/H+ exchanger (NHE); [6]): abolished the imetit-induced NHE attenuation | effect on imetit-induced attenuation of endogenous NE exocytosis [1]: prevented | effect on imetit-induced attenuation of [3H]NE exocytosis (SH-SY5Y-H3 cells [2]): prevented | effect on imetit-induced depression of the rise in Cai concentration (SH-SY5Y-H3 cells [4]; [6]): completely prevented | effect on the imetit response of Ca2+ transients (SH-SY5Y-H3 cells [4]; [6]): prevented

ω-conotoxin GVIA [ω-CTX]
concentration-response curve for K+-induced exocytosis of [3H]NE (SH-SY5Y cells [5]): shifted markedly downwards | concentration-response curve for K+-induced exocytosis of endogenous NE [1]: shifted markedly downwards | concentration-response curve for K+-induced exocytosis of [3H]NE (SH-SY5Y-H3 cells [2]): shifted markedly downwards | increase in peak Cai concentration on K+ depolarization (SH-SY5Y cells [3]): markedly attenuated | increase in peak Cai concentration on K+ depolarization (SH-SY5Y-H3 cells [4]): markedly attenuated
